Results from patent US4792545A, “Boholmycin antibiotic” (Bristol-Myers Company, priority 1986, dated 1988).
Values after ≈ are worked out from the molar mass of the structure shown.

How the values were obtained:
Mycobacterium 607 D46 = assay: MIC by serial agar dilution; type: cell-based; conditions: Mycobacterium 607 D46, kanamycin resistant strain; medium B: No. 1001 medium; read-out: MIC
S. aureus 209P = assay: MIC by serial agar dilution; type: cell-based; conditions: Staphylococcus aureus, 209P
P. vulgaris A9436 = assay: MIC by serial agar dilution; type: cell-based; conditions: Proteus vulgaris, medium A: Nutrient agar, read-out: MIC
K. pneumoniae D-11 [1] = assay: MIC by serial agar dilution; type: cell-based; conditions: Klebsiella pneumoniae, D11, medium A: Nutrient agar, read-out: MIC
B. anthracis IID-115 = assay: microbe, parasite or virus in culture; type: cell-based; conditions: Bacillus anthracis, IID115
S. marcescens A20019 = assay: MIC by serial agar dilution; type: cell-based; conditions: Serratia marcescens, A20019
P. aeruginosa A20601 = assay: MIC by serial agar dilution; type: cell-based; conditions: Pseudomonas aeruginosa; P. aeruginosa A20601, kanamycin resistant strain; medium A: Nutrient agar; read-out: MIC
K. pneumoniae A9678 = assay: MIC by serial agar dilution; type: cell-based; conditions: Klebsiella pneumoniae, medium A: Nutrient agar, read-out: MIC
K. pneumoniae D-11 [2] = assay: in vivo efficacy in mice against experimental infection; conditions: Klebsiella pneumoniae, D11, im, 120 h, read-out: PD50
E. coli A20664 = assay: MIC by serial agar dilution; type: cell-based; conditions: Escherichia coli; E. coli A20664, kanamycin resistant strain; medium A: Nutrient agar; read-out: MIC
E. cloacae A20364 = assay: MIC by serial agar dilution; type: cell-based; conditions: Enterobacter cloacae; E. cloacae A20364, kanamycin resistant strain; medium A: Nutrient agar; read-out: MIC
B. subtilis PCI-219 = assay: inhibiting growth of B. subtilis PCI-219 (paper disc); type: cell-based; conditions: for Inhibition zone vs B. subtilis PCI-219: 28° C., 18 hours
Experimental: Boholmycin dihydrochloride tetrahydrate was tested in comparison with streptomycin, glebomycin, myomycin B and kanamycin in respect to stimulating growth of E. coli D64 and in respect to inhibiting growth of B. subtilis PCI-219. The results are shown in Table 4 wherein the term "boholmycin" is used for short in referring to boholmycin dihydrochloride tetrahydrate.
*^1 8 mm paper disc containing 35 μl of test solution
*^3 Incubation at 28° C. for 18 hours

E. coli NIHJ = assay: MIC by serial agar dilution; type: cell-based; conditions: Escherichia coli, medium A: Nutrient agar, read-out: MIC
Mycobacterium 607 D87 = assay: MIC by serial agar dilution; type: cell-based; conditions: Mycobacterium, 607D87
S. aureus Smith [3] = assay: MIC by serial agar dilution; type: cell-based; conditions: Staphylococcus aureus
E. cloacae A21006 = assay: MIC by serial agar dilution; type: cell-based; conditions: Enterobacter cloacae; E. cloacae A21006, kanamycin resistant strain; medium A: Nutrient agar; read-out: MIC
S. marcescens A22302 = assay: MIC by serial agar dilution; type: cell-based; conditions: Serratia marcescens, A22302
E. coli Juhl [4] = assay: MIC by serial agar dilution; type: cell-based; conditions: Escherichia coli, medium A: Nutrient agar, read-out: MIC
P. aeruginosa A9930 = assay: MIC by serial agar dilution; type: cell-based; conditions: Pseudomonas aeruginosa, medium A: Nutrient agar, read-out: MIC
E. coli JR35/c600 = assay: MIC by serial agar dilution; type: cell-based; conditions: Escherichia coli, JR35/C600
P. mirabilis A9554 = assay: MIC by serial agar dilution; type: cell-based; conditions: Proteus mirabilis, medium A: Nutrient agar, read-out: MIC
S. aureus Smith [5] = assay: in vivo efficacy in mice against experimental infection; conditions: Staphylococcus aureus, im, 120 h, read-out: PD50
E. coli K-12 = assay: MIC by serial agar dilution; type: cell-based; conditions: Escherichia coli, K12, medium A: Nutrient agar, read-out: MIC
P. aeruginosa A9843A = assay: microbe, parasite or virus in culture; type: cell-based; conditions: Pseudomonas aeruginosa, A9843A
S. aureus A20239 = assay: MIC by serial agar dilution; type: cell-based; conditions: Staphylococcus aureus, A20239
E. coli Juhl [6] = assay: in vivo efficacy in mice against experimental infection; conditions: Escherichia coli, im, 120 h, read-out: PD50
M. luteus PCI-1001 = assay: MIC by serial agar dilution; type: cell-based; conditions: Micrococcus luteus, PCI1001
Mycobacterium ranae = assay: MIC by serial agar dilution; type: cell-based; conditions: Mycobacterium
M. flavus D-12 = assay: MIC by serial agar dilution; type: cell-based; conditions: Micrococcus flavus, D12, medium A: Nutrient agar, read-out: MIC
B. subtilis ATCC6633 = assay: MIC by serial agar dilution; type: cell-based; conditions: Bacillus subtilis, medium A: Nutrient agar, read-out: MIC
Mycobacterium phlei = assay: MIC by serial agar dilution; type: cell-based; conditions: Mycolicibacterium phlei
E. coli D64 = assay: stimulating growth of streptomycin-dependent E. coli D64 (paper disc); type: cell-based; conditions: 37° C., 45 hours
Source text: The results are shown in Table 4 wherein the term "boholmycin" is used for short in referring to boholmycin dihydrochloride tetrahydrate.

[7] = Bacillus subtilis, PCI219, 18 h, read-out: Inhibition zone vs B. subtilis PCI-219

## NC[C@H]1O[C@H](O[C@H]2[C@H](O)[C@@H](O[C@H]3O[C@H](CO)[C@@H](O)[C@H](N)[C@H]3O)[C@H](N)C[C@@H]2N)[C@H](O)[C@@H](O)[C@@H]1O [kanamycin]
Mycobacterium 607 D46
  MIC: > 100 µg/mL
S. aureus 209P
  MIC: 0.8 µg/mL (≈ 1.65 µM)
P. vulgaris A9436
  MIC: 0.2 µg/mL (≈ 0.413 µM)
K. pneumoniae D-11 [1]
  MIC: 0.4 µg/mL (≈ 0.826 µM)
B. anthracis IID-115
  MIC: 0.4 µg/mL (≈ 0.826 µM)
S. marcescens A20019
  MIC: 1.5 µg/mL (≈ 3.1 µM)
P. aeruginosa A20601
  MIC: > 100 µg/mL
K. pneumoniae A9678
  MIC: 3.1 µg/mL (≈ 6.4 µM)
K. pneumoniae D-11 [2]
  ED50: 1.1 mg/kg
E. coli A20664
  MIC: > 100 µg/mL
E. cloacae A20364
  MIC: > 100 µg/mL
B. subtilis PCI-219; [7]
  zone of inhibition at 100 µg/mL: 30 mm
  zone of inhibition at 400 µg/mL: 34 mm
E. coli NIHJ
  MIC: 0.8 µg/mL (≈ 1.65 µM)
Mycobacterium 607 D87
  MIC: 0.2 µg/mL (≈ 0.413 µM)
S. aureus Smith [3]
  MIC: 0.4 µg/mL (≈ 0.826 µM)
E. cloacae A21006
  MIC: > 100 µg/mL
S. marcescens A22302
  MIC: 50 µg/mL (≈ 103 µM)
E. coli Juhl [4]
  MIC: 1.6 µg/mL (≈ 3.3 µM)
P. aeruginosa A9930
  MIC: 12.5 µg/mL (≈ 25.8 µM)
E. coli JR35/c600
  MIC: > 100 µg/mL
P. mirabilis A9554
  MIC: 0.8 µg/mL (≈ 1.65 µM)
S. aureus Smith [5]
  ED50: 1.1 mg/kg
E. coli K-12
  MIC: 0.8 µg/mL (≈ 1.65 µM)
P. aeruginosa A9843A
  MIC: 6.3 µg/mL (≈ 13 µM)
S. aureus A20239
  MIC: > 100 µg/mL
E. coli Juhl [6]
  ED50: 3.5 mg/kg
M. luteus PCI-1001
  MIC: 6.3 µg/mL (≈ 13 µM)
Mycobacterium ranae
  MIC: 0.2 µg/mL (≈ 0.413 µM)
M. flavus D-12
  MIC: 1.6 µg/mL (≈ 3.3 µM)
B. subtilis ATCC6633
  MIC: 0.2 µg/mL (≈ 0.413 µM)
Mycobacterium phlei
  MIC: 0.4 µg/mL (≈ 0.826 µM)

## CN[C@@H]1[C@H](O[C@H]2[C@H](O[C@H]3[C@H](O)[C@@H](O)[C@H](OC(N)=O)[C@@H](O)[C@@H]3N=C(N)N)O[C@@H](C)[C@]2(O)CO)O[C@@H](CO)[C@H](O)[C@H]1O [glebomycin]
E. coli D64; 1 mg/ml
  Growth zone vs E. coli D64: 15 mm
E. coli D64; 4 mg/ml
  Growth zone vs E. coli D64: 27 mm
B. subtilis PCI-219; 1 mg/ml
  Inhibition zone vs B. subtilis PCI-219: 30 mm
B. subtilis PCI-219; 4 mg/ml
  Inhibition zone vs B. subtilis PCI-219: 33 mm
